Reference: EP4786466A1, “QUINAZOLINE DERIVATIVE, SALT THEREOF, AND PHARMACEUTICAL COMPOSITION COMPRISING SAME AS ACTIVE INGREDIENT” (Korea Research Institute of Chemical Technology, priority 2023, dated 2025)
Like-named read-outs stand apart in the source and are kept apart here.

How the values were obtained:
[1] = target: T1, Recombinant GST-TAG-MASTL (Homo sapiens, UniProt Q96GX5); assay: HTRF-based kinase assay (HTRF KinEASE assay kit); format: biochemical; conditions: for activity at 1 µM: read-out: MASTL activity (%) HTRF (1 µM)
T1 construct: GST; purchased Thermo Fisher Scientific
T1 sequence (Q96GX5 1-879): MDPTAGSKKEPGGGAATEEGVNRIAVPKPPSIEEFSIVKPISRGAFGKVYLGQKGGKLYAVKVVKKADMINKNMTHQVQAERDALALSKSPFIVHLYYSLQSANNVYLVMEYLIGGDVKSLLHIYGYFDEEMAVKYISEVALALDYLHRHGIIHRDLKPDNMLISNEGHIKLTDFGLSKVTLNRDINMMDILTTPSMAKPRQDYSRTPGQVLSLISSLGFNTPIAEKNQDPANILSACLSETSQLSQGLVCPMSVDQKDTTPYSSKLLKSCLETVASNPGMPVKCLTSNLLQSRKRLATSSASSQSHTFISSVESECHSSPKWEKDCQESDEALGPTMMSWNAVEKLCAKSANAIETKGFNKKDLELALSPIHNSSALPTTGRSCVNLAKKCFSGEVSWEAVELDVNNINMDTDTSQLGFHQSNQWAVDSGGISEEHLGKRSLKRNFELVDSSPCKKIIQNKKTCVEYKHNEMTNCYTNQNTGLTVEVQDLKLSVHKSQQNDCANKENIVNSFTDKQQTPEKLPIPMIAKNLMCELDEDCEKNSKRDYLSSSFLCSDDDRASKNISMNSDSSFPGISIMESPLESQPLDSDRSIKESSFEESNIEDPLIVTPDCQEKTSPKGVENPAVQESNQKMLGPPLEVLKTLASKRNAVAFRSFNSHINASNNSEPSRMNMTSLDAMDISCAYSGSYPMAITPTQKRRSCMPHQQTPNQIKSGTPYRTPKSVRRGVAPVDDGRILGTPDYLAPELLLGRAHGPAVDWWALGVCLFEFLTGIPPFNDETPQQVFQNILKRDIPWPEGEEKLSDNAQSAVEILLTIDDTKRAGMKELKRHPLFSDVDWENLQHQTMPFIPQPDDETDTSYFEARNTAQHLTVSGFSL
Source text: Recombinant GST-TAG-MASTL (Thermo Fisher Scientific, MA, USA) was used for HTRF-based kinase assays. The HTRF KinEASE assay kit (CisBio, MA, USA) was used according to the manufacturer's instructions.

pENSA = pENSA level by immunofluorescence (described method: in vitro kinase analysis with GST-tag-MASTL and His-tag-ENSA); format: cell-based; conditions: for pENSA (%) Immunofluor ecense (1 µM): compound 1 µM
Method: Two recombinant GST-tag-MASTL (Thermo Fisher Scientific) and His-tag-ENSA (Sino Biological Inc., Beijing, China) were used for in vitro kinase analysis. In vitro kinase analysis was performed as described in the literature [Front Oncol 2020, 10, 571601, 39-202021-10-20doi:10.3389/fonc.2020.571601.].
Phosphorylated ENSA (pENSA), which is activated by phosphorylation by MASTL, can be utilized as a biomarker as it is expected that its activity will be inhibited along with the inhibition of MASTL. In the cell viability assay, MCF7 refers to a breast cancer cell line, and MCF10A refers to a normal breast […] cell line.

in vitro = conditions: human
Method: (§1) MCF7 breast cancer cell lines and MCF10A normal breast cancer cell lines were treated with serial dilutions of the compounds of the present invention ranging from 1 µM to 15.63 nM for 72 hours. Cell viability was measured by the WST-8 assay (Cyto XTM cell viability assay kit; LPS solution, Daejeon, Korea) according to the manufacturer's instructions.

[2] = test system: MCF7 breast cancer cell lines; assay: Cell viability analysis, WST-8 assay, MCF7; conditions: Homo sapiens, MCF7, 72 h; for viability at 1 µM: read-out: Cell viability (%) WST-8, MCF7 (1 µM), compound 1 µM, 72 hours
Method: as §1

[3] = HTRF, read-out: IC50(nM) MASTL activity

## NCCCCNC(=O)c1ccc(Nc2nc(Nc3cc(C4CC4)[nH]n3)c3ccccc3n2)cc1 [4ac, M-(4-aminobutyl)-4-((4-((5-cyclopropyl-1G-pyrazol-3-yl)amino)quinazolin-2-yl)amino)benzamide.trifluoroacetic acid]
[1]
  activity at 1 µM: 58.3%
pENSA
  pENSA (%) Immunofluor ecense (1 µM): 149%
In vitro; mcf10a cells
  viability at 1 µM: 102%
[2]
  viability at 1 µM: 104%

## CC(C)(C)OC(=O)NCCCNC(=O)c1ccc(Nc2nc(Nc3cc(C4CC4)[nH]n3)c3ccccc3n2)cc1 [4x, sdqs-butyl (3-(4-((4-((5-cyclopropyl-1G-pyrazol-3-yl)amino)quinazolin-2-yl)amino)benzamido)propyl)carbamate]
[1]; compound 1 µM
  activity at 1 µM: 70.8%
pENSA
  pENSA (%) Immunofluor ecense (1 µM): 185%
In vitro; mcf10a cells
  viability at 1 µM: 80%
[2]
  viability at 1 µM: 75.8%

## CC(C)(C)OC(=O)NCCCCNC(=O)c1ccc(Nc2nc(Nc3cc(C4CC4)[nH]n3)c3ccccc3n2)cc1 [4y, sdqs-butyl (4-(4-((4-((5-cyclopropyl-1G-pyrazol-3-yl)amino)quinazolin-2-yl)amino)benzamido)butyl)carbamate]
[1]; compound 1 µM
  activity at 1 µM: 75.3%
pENSA
  pENSA (%) Immunofluor ecense (1 µM): 164%
In vitro; mcf10a cells
  viability at 1 µM: 80.2%
[2]
  viability at 1 µM: 78.7%

## CC(C)(C)OC(=O)NCCCCCNC(=O)c1ccc(Nc2nc(Nc3cc(C4CC4)[nH]n3)c3ccccc3n2)cc1 [4z, sdqs-butyl (5-(4-((4-((5-cyclopropyl-1G-pyrazol-3-yl)amino)quinazolin-2-yl)amino)benzamido)pentyl)carbamate]
[1]; compound 1 µM
  activity at 1 µM: 85.3%
pENSA
  pENSA (%) Immunofluor ecense (1 µM): 188%
In vitro; mcf10a cells
  viability at 1 µM: 77.7%
[2]
  viability at 1 µM: 86.3%

## CC(C)(C)OC(=O)N1CCC2(CC1)CN(c1nc(Nc3cc(C4CC4)[nH]n3)c3ccccc3n1)C2 [6d, sdqs-butyl 2-(4-((5-cyclopropyl-1G-pyrazol-3-yl)amino)quinazolin-2-yl)-2,7-diazaspiro[3.5]nonane-7-carboxylate]
[1]; compound 1 µM
  activity at 1 µM: 48%
pENSA
  pENSA (%) Immunofluor ecense (1 µM): 96.4%
In vitro; mcf10a cells
  viability at 1 µM: 104%
[2]
  viability at 1 µM: 88.6%

## CC(C)(C)OC(=O)N1C2CCC1CN(c1nc(Nc3cc(C4CC4)[nH]n3)c3ccccc3n1)C2 [19' (B), sdqs-butyl 3-(4-((5-cyclopropyl-1G-pyrazol-3-yl)amino)quinazolin-2-yl)-3,8-diazabicyclo[3.2.1]octane-8-carboxylate]
[1]; [3]
  IC50: 282 nM
[1]; compound 1 µM
  activity at 1 µM: 32.2%
pENSA
  pENSA (%) Immunofluor ecense (1 µM): 74.7%
In vitro; mcf10a cells
  viability at 1 µM: 101%
[2]
  viability at 1 µM: 74.8%

## Clc1nc(Nc2cc(C3CC3)[nH]n2)c2ccccc2n1 [compound 2a, 2-chloro-M-(5-cyclopropyl-1G-pyrazol-3-yl)quinazolin-4-amine]
[1]; compound 1 µM
  activity at 1 µM: 73.4%
pENSA
  pENSA (%) Immunofluor ecense (1 µM): 105%
In vitro; mcf10a cells
  viability at 1 µM: 93.3%
[2]
  viability at 1 µM: 106%

## CC(C)(C)OC(=O)Nc1cccc(Nc2nc(Nc3ccc(CC#N)cc3)nc3ccccc23)c1 [compound 3m, sdqs-butyl (3-((2-((4-(cyanomethyl)phenyl)amino)quinazolin-4-yl)amino)phenyl)carbamate]
[1]; compound 1 µM
  activity at 1 µM: 117%
pENSA
  pENSA (%) Immunofluor ecense (1 µM): 85%
In vitro; mcf10a cells
  viability at 1 µM: 91.7%
[2]
  viability at 1 µM: 116%

## Brc1ccc(Nc2nc(Nc3cc(C4CC4)[nH]n3)c3ccccc3n2)cc1 [compound 4b, M^2-(4-bromophenyl)-M^4-(5-cyclopropyl-1G-pyrazol-3-yl)quinazoline-2,4-diamine]
[1]; HTRF, unit µM, read-out: IC50 MASTL activity
  IC50: 1400 nM
[1]; compound 1 µM
  activity at 1 µM: 43.2%
pENSA
  pENSA (%) Immunofluor ecense (1 µM): 82%
pENSA; unit µM, read-out: IC50 pENSA
  IC50: 1.1 µM
In vitro; mcf10a cells
  viability at 1 µM: 68.2%
[2]
  viability at 1 µM: 47.7%

## Fc1cc(Br)ccc1Nc1nc(Nc2cc(C3CC3)[nH]n2)c2ccccc2n1 [compound 4c, M^2-(4-bromo-2-fluorophenyl)-M^4-(5-cyclopropyl-1G-pyrazol-3-yl)quinazoline-2,4-diamine]
[1]; compound 1 µM
  activity at 1 µM: 47.1%
pENSA
  pENSA (%) Immunofluor ecense (1 µM): 69%
pENSA; read-out: IC50(nM) pENSA
  IC50: 0.85 µM
In vitro; mcf10a cells
  viability at 1 µM: 83.3%
[2]
  viability at 1 µM: 50.8%

## c1ccc2c(Nc3cc(C4CC4)[nH]n3)nc(Nc3ccc4cn[nH]c4c3)nc2c1 [compound 4de, N^4-(5-cyclopropyl-1H-pyrazol-3-yl)-N^2-(1H-indazol-6-yl)quinazoline-2,4-diamine]
[1]; compound 1 µM
  activity at 1 µM: 31.8%
In vitro
  viability at 1 µM: 24%
[2]
  viability at 1 µM: 44.2%

## c1ccc2c(Nc3cc(C4CC4)n[nH]3)nc(Nc3ccc4nc[nH]c4c3)nc2c1 [compound 4df, N^2-(1H-benzo[d]imidazol-5-yl)-N^4-(5-cyclopropyl-1H-pyrazol-3-yl)quinazoline-2,4-diamine]
[1]; compound 1 µM
  activity at 1 µM: 31.8%
In vitro
  viability at 1 µM: 4.8%
[2]
  viability at 1 µM: 78.4%

## c1ccc2c(Nc3cc(C4CC4)[nH]n3)nc(Nc3cnc4[nH]ccc4c3)nc2c1 [compound 4dg, N^4-(5-cyclopropyl-1H-pyrazol-3-yl)-N^2-(1H-pyrrolo[2,3-b]pyridin-5-yl)quinazoline-2,4-diamine]
[1]; compound 1 µM
  activity at 1 µM: 37.9%
In vitro
  viability at 1 µM: 12%
[2]
  viability at 1 µM: 49%

## c1ccc2c(Nc3cc(C4CC4)[nH]n3)nc(Nc3cnc4cccnn34)nc2c1 [compound 4dh, N^4-(5-cyclopropyl-1H-pyrazol-3-yl)-N^2-(imidazo[1,2-b]pyridazin-3-yl)quinazoline-2,4-diamine]
[1]; compound 1 µM
  activity at 1 µM: 88.7%
In vitro
  viability at 1 µM: 111%
[2]
  viability at 1 µM: 116%

## O=C1Cc2cc(Nc3nc(Nc4cc(C5CC5)[nH]n4)c4ccccc4n3)ccc2N1 [compound 4di, 5-((4-((5-cyclopropyl-1G-pyrazol-3-yl)amino)quinazolin-2-yl)amino)indolin-2-one]
[1]; compound 1 µM
  activity at 1 µM: 38.8%
pENSA
  pENSA (%) Immunofluor ecense (1 µM): 51.1%
In vitro; mcf10a cells
  viability at 1 µM: 12.1%
[2]
  viability at 1 µM: 55.4%

## c1ccc2c(Nc3cc(C4CC4)[nH]n3)nc(Nc3ccc(Cc4nnn[nH]4)cc3)nc2c1 [compound 4e, M^2-(4-((1G-tetrazol-5-yl)methyl)phenyl)-M^4-(5-cyclopropyl-1G-pyrazol-3-yl)quinazoline-2,4-diamine]
[1]; [3]
  IC50: 164 nM
[1]; footnote b: concentration 10 µM, read-out: MASTL activity (%) HTRF
  activity at 10 µM: 15.1%
pENSA
  pENSA (%) Immunofluor ecense (1 µM): 90.7%
In vitro; mcf10a cells
  viability at 1.25 µM: 110%
[2]; read-out: Cell viability (%) WST-8, MCF7, footnote a: concentration 1.25 µM, 72 hours
  viability at 1.25 µM: 112%

## N#CCc1ccc(C2=CCN(c3nc(Nc4cc(C5CC5)[nH]n4)c4ccccc4n3)CC2)cc1F [compound 6n, 2-(4-(1-(4-((5-cyclopropyl-1G-pyrazol-3-yl)amino)quinazolin-2-yl)-1,2,3,6-tetrahydropyridin-4-yl)-2-fluorophenyl)acetonitrile]
[1]
  IC50: 121 nM
  activity at 1 µM: 30.8%
In vitro; mcf10a cells
  viability at 1 µM: 116%
[2]
  viability at 1 µM: 110%

## N#Cc1cc(Cl)ccc1C1=CCN(c2nc(Nc3cc(C4CC4)[nH]n3)c3ccccc3n2)CC1 [compound 6o, 5-chloro-2-(1-(4-((5-cyclopropyl-1G-pyrazol-3-yl)amino)quinazolin-2-yl)-1,2,3,6-tetrahydropyridin-4-yl)benzonitrile]
[1]
  activity at 1 µM: 61.2%
In vitro; mcf10a cells
  viability at 1 µM: 24.9%
[2]
  viability at 1 µM: 48.4%

## N#Cc1ccccc1S(=O)(=O)N1CC2CC1CN2c1nc(Nc2cc(C3CC3)[nH]n2)c2ccccc2n1 (stereo not shown) [compound 15v, 2-((5-(4-((5-cyclopropyl-1G-pyrazol-3-yl)amino)quinazolin-2-yl)-2,5-diazabicyclo[2.2.1]heptan-2-yl)sulfonyl)benzonitrile]
[1]
  IC50: 52.7 nM
  activity at 1 µM: 29.5%
In vitro; mcf10a cells
  viability at 1 µM: 81.8%
[2]
  viability at 1 µM: 80.5%

## O=C1CSC(Nc2nc(Nc3ccccc3)nc3ccccc23)=N1 [compound 26b, 2-((2-(phenylamino)quinazolin-4-yl)amino)thiazol-4(5H)-one]
[1]; compound 1 µM
  activity at 1 µM: 112%
In vitro
  viability at 1 µM: 98.8%
[2]
  viability at 1 µM: 95.8%
